This is an account of results in ChEMBL document CHEMBL1149383, “Discovery of a daunorubicin analogue that exhibits potent antitumor activity and overcomes P-gp-mediated drug resistance” (J Med Chem, 2006).

Activity calls are given as the source filed them. No cut-off for these calls is given here. Where only a bound is given, the exact number is not on record here.

As usually defined, the IC50 is the point on the concentration scale where inhibition reaches its midpoint. Read a low IC50 as greater potency in that assay.

The test system of experiment [1] is K562. The experiment is described as follows: Increase in the level of drug efflux in Dox-resistant K562 cells in presence of cyclosporine over its absence. Format: functional, cell-based. The conditions noted are these: Homo sapiens.
For experiment [2], the system named is K562. The experiment is described as follows: Increase in the level of drug uptake in Dox-resistant K562 cells in presence of cyclosporine over its absence. Format: functional, cell-based. The conditions noted are these: Homo sapiens.
Experiment [3] relates to K562. In words: Cytotoxicity against Dox-resistant K562 cells by MTS at 1 uM and in absence of cyclosporine. Format: functional, Homo sapiens.
For experiment [4], the system named is K562. In words: Cytotoxicity against Dox-resistant K562 cells by MTS at 1 uM and in presence of cyclosporine. Format: functional, Homo sapiens.
For experiment [5], the system named is Mus musculus. The experiment is described as follows: Mortality in mice with Dox-resistant K562 xenografts in 20 days at 5-10 mg/kg, ip. Format: functional.
In experiment [6] the test system is K562. The experiment is described as follows: Cytotoxicity against Dox-resistant K562 cells by MTS. Format: functional, cell-based. The conditions noted are these: Homo sapiens.
In experiment [7] the test system is K562. In words: Drug resistance index, ratio of IC50 in Dox-resistant K562 cells over Dox-sensitive cells. Format: functional, Homo sapiens.
Experiment [8] relates to KB 3-1. The experiment is described as follows: Cytotoxicity against drug resistant KB-V cells. Format: functional, cell-based. The conditions noted are these: Homo sapiens.
The test system of experiment [9] is KB 3-1. In words: Cytotoxicity against human epidermoid carcinoma KB-3-1 cells. Format: functional, cell-based.
Experiment [10] relates to Mus musculus. The experiment is described as follows: Survival in mice with Dox-resistant K562 xenografts after 50 days at 5-10 mg/kg, ip. Format: functional.
Experiment [11] has as its system K562. The experiment is described as follows: Increase in cytotoxicity against Dox-resistant K562 cells in presence of Cyclosporine over its absence. The conditions noted are these: Homo sapiens. Format: functional, cell-based.

For the compound `COc1cccc2c1C(=O)c1c(O)c3c(c(O)c1C2=O)C[C@@](O)(C(C)=O)C[C@@H]3O[C@H]1C[C@H](n2cc(CCCCO)nn2)[C@H](O)[C@H](C)O1`, the outcome in experiment [1] and in [2] was inactive.
Turning to `COc1cccc2c1C(=O)c1c(O)c3c(c(O)c1C2=O)C[C@@](O)(C(C)=O)C[C@@H]3O[C@H]1C[C@H](n2cc(CCCO)nn2)[C@H](O)[C@H](C)O1`, the result in experiment [1] and in [2] was inactive.
Consider `COc1cccc2c1C(=O)c1c(O)c3c(c(O)c1C2=O)C[C@@](O)(C(C)=O)C[C@@H]3O[C@H]1C[C@H](N)[C@H](O)[C@H](C)O1` [DAUNORUBICIN], for which the outcome in experiment [1] and in [2] was Active. Also, the results for the Activity in experiment [3], in experiment [4] and in experiment [5] were 30%, 70% and 50%, respectively. In [6], this compound yielded an IC50 of more than 5000 nM. For the same compound, the “Ratio IC50” value in [7] turned out to be 333.
Consider `COc1cccc2c1C(=O)c1c(O)c3c(c(O)c1C2=O)C[C@@](O)(C(C)=O)C[C@@H]3O[C@H]1C[C@H](n2cc(CCO)nn2)[C@H](O)[C@H](C)O1`, for which the result in experiment [1] and in [2] was inactive.
For `COc1cccc2c1C(=O)c1c(O)c3c(c(O)c1C2=O)C[C@@](O)(C(C)=O)C[C@@H]3O[C@H]1C[C@H](n2cc(CO)nn2)[C@H](O)[C@H](C)O1`, the outcome in experiment [1] and in experiment [2] was inactive.
`COc1cccc2c1C(=O)c1c(O)c3c(c(O)c1C2=O)C[C@@](O)(C(C)=O)C[C@@H]3O[C@H]1C[C@H](N=[N+]=[N-])[C@H](O)[C@H](C)O1`: the outcome in [1], in [2] and in [11] was inactive. In addition, the IC50 in experiment [8] and in experiment [9] was 300 nM throughout. In addition, in experiment [10], the Activity stood at 100%. In addition, in experiment [7], the “Ratio IC50” value was 13.
